Reference: ChEMBL document CHEMBL5365497, “Developing Novel Coumarin-Containing Azoles Antifungal Agents by the Scaffold Merging Strategy for Treating Azole-Resistant Candidiasis” (J Med Chem, 2023)
In brackets after ≈: the same amount, converted by molar mass. Activity calls are given as the source filed them. No cut-off for these calls is given here.

Key:
[1] = Subacute toxicity in female KM mouse assessed as kidney inflammation at 100 mg/kg administered via gavage daily for 7 days; type: organism-based; conditions: in vivo, po, 168 h, time 7 day
Candida albicans [2] = experiment: Antifungal activity against Candida albicans CPCC400616 assessed as reduction in EFG1 expression at 2 ug/ml incubated for 12 hrs by RT-PCR analysis; type: functional, organism-based; conditions: dose 2.0 µg/ml
Cytochrome P450 2C19 = Cytochrome P450 2C19 (Homo sapiens, UniProt P33261); experiment: Inhibition of CYP2C19 in human liver microsomes using […] as substrate preincubated for 5 mins followed by NADPH addition by LC-MS/MS analysis; type: ADME, Microsome
[3] = Subacute toxicity in KM mouse assessed as liver damage at 100 mg/kg administered via gavage daily for 7 days; type: organism-based; conditions: in vivo, po, 168 h, time 7 day
Candida albicans [4] = experiment: Antifungal activity against fluconazole-resistant Candida albicans 632 assessed as fungal growth inhibition by CLSI based microdilution method; type: functional
Nakaseomyces glabratus = experiment: Antifungal activity against Candida glabrata assessed as fungal growth inhibition by CLSI based microdilution method; type: functional
Candida albicans [5] = experiment: Antifungal activity against Candida albicans SC5314 assessed as cell lysis at 16 ug/ml incubated for 24 hrs by TEM analysis; type: functional, organism-based; conditions: dose 16.0 µg/ml
[6] = Stability in mouse plasma assessed as compound remaining at 1 uM measured for 180 mins by LC-MS/MS analysis; type: ADME, cell-free; conditions: read-out: Stability
Candida albicans [7] = experiment: Antifungal activity against Candida albicans CPCC400616 assessed as reduction in CPH1 expression at 2 ug/ml incubated for 12 hrs by RT-PCR analysis; type: functional, organism-based; conditions: dose 2.0 µg/ml
Candida albicans [8] = experiment: Antifungal activity against fluconazole-resistant Candida albicans 904 assessed as reduction in CPH1 expression at 16 ug/ml incubated for 12 hrs by RT-PCR analysis; type: functional, organism-based; conditions: dose 16.0 µg/ml
Candida albicans [9] = experiment: Antifungal activity against Candida albicans SC5314 assessed as destruction of cell wall at 16 ug/ml incubated for 24 hrs by TEM analysis; type: functional, organism-based; conditions: dose 16.0 µg/ml
[10] = Cytotoxicity against human MRC5 cells assessed as cell growth inhibition by MTT assay; type: toxicity, cell-based
Candida albicans [11] = experiment: Antifungal activity against Candida albicans CPCC400616 assessed as reduction in TEC1 expression at 2 ug/ml incubated for 12 hrs by RT-PCR analysis; type: functional, organism-based; conditions: dose 2.0 µg/ml
[12] = target: T1, Lanosterol 14-alpha demethylase (Candida albicans (strain SC5314 / ATCC MYA-2876) (Yeast), UniProt P10613); experiment: Inhibition of CYP51 in Candida albicans SC5314 assessed as increase in eburicol level at 0.03125 ug/ml incubated for 24 hrs by GC-MS analysis; conditions: at 0.03125 µg/mL
Candida albicans [13] = experiment: Antifungal activity against fluconazole-resistant Candida albicans 904 assessed as reduction in EFG1 expression at 16 ug/ml incubated for 12 hrs by RT-PCR analysis; type: functional, organism-based; conditions: dose 16.0 µg/ml
Candida albicans [14] = experiment: Antifungal activity against fluconazole-resistant Candida albicans 904 assessed as decrease in MDR1 expression at 16 ug/ml measured after 16 hrs by RT-PCR analysis; type: functional, organism-based; conditions: dose 16.0 µg/ml
Candida albicans [15] = experiment: Antifungal activity against fluconazole-resistant Candida albicans 904 assessed as reduction in […] cell count at 16 times MIC incubated for 24 hrs by time-kill assay (reference value: 4 log10CFU/mL); type: functional
Candida parapsilosis = experiment: Antifungal activity against Candida parapsilosis assessed as fungal growth inhibition by CLSI based microdilution method; type: functional; conditions: Lodderomyces parapsilosis
[16] = Subacute toxicity in female KM mouse assessed as liver inflammation at 100 mg/kg administered via gavage daily for 14 days; type: organism-based; conditions: in vivo, po, 336 h, time 14 day
Candida albicans [17] = experiment: Antibiofilm activity against Candida albicans CPCC400616 incubated for 24 hrs by XTT reduction assay; type: functional, organism-based; conditions: dose <= 128.0 µg/ml
[18] = Subacute toxicity in female KM mouse assessed as kidney damage at 100 mg/kg administered via gavage daily for 14 days; type: organism-based; conditions: in vivo, po, 336 h, time 14 day
[19] = Subacute toxicity in male KM mouse assessed as kidney damage at 100 mg/kg administered via gavage daily for 14 days; type: organism-based; conditions: in vivo, po, 336 h, time 14 day
Candida albicans [20] = experiment: Antifungal activity against fluconazole-resistant Candida albicans 904 infected in ICR mouse assessed as reduction in fungal kidney burden by measuring CFU administered intraperitoneally measured after 5 days; type: functional, organism-based; conditions: dose 0.6 mg/kg, route ip, time 5.0 day
[21] = target: T1, Lanosterol 14-alpha demethylase; experiment: Inhibition of CYP51 in Candida albicans SC5314 assessed as increase in lanosterol level at 0.03125 ug/ml incubated for 24 hrs by GC-MS analysis; conditions: at 0.03125 µg/mL
Candida albicans [22] = experiment: Antifungal activity against Candida albicans CPCC400616 assessed as inhibition of yeast to hypha morphological transition at 2 ug/ml incubated for 4 hrs by inverted microscopy; type: functional, organism-based; conditions: dose 2.0 µg/ml
Cytochrome P450 2D6 = Cytochrome P450 2D6 (Homo sapiens, UniProt P10635); experiment: Inhibition of CYP2D6 in human liver microsomes using dextromethorphan as substrate preincubated for 5 mins followed by NADPH addition by LC-MS/MS analysis; type: ADME, Microsome
[23] = target: T1, Lanosterol 14-alpha demethylase; experiment: Inhibition of CYP51 in Candida albicans SC5314 assessed as ergosterol level at 0.03125 ug/ml incubated for 24 hrs by GC-MS analysis (reference value: 97.58 %); parameters: scale not given: the % may be the effect or the level left; conditions: at 0.03125 µg/mL
Pichia kudriavzevii = experiment: Antifungal activity against Pichia kudriavzevii assessed as fungal growth inhibition by CLSI based microdilution method; type: functional
Candida albicans [24] = experiment: Antifungal activity against fluconazole-resistant Candida albicans 904 assessed as decrease in CDR2 expression at 16 ug/ml measured after 16 hrs by RT-PCR analysis; type: functional, organism-based; conditions: dose 16.0 µg/ml
[25] = Cytotoxicity against mouse J774.A1 cells assessed as cell growth inhibition by MTT assay; type: toxicity, cell-based
Candida albicans [26] = experiment: Antifungal activity against fluconazole-resistant Candida albicans 904 assessed as inhibition of yeast to hypha morphological transition at 16 ug/ml incubated for 4 hrs by inverted microscopy; type: functional, organism-based; conditions: dose 16.0 µg/ml
Candida albicans [27] = experiment: Antifungal activity against Candida albicans CPCC400616 assessed as fungal growth inhibition by CLSI based microdilution method; type: functional
Candida albicans [28] = experiment: Antifungal activity against fluconazole-resistant Candida albicans 904 assessed as fungal growth inhibition by CLSI based microdilution method; type: functional
Candida albicans [29] = experiment: Antifungal activity against Candida albicans SC5314 infected in ICR mouse assessed as reduction in fungal kidney burden by measuring CFU at 0.6 mg/kg, ip measured after 5 days; type: functional, organism-based; conditions: time 5.0 day
[30] = Metabolic stability in mouse liver microsomes assessed as half life incubated for 5 to 60 mins by LC-MS/MS analysis; type: ADME, Microsome; conditions: time 5-60 min
Candida albicans [31] = experiment: Antifungal activity against Candida albicans SC5314 assessed as fungal growth inhibition by CLSI based microdilution method; type: functional
[32] = Subacute toxicity in male KM mouse assessed as focal infiltration of lymphocytes in kidney at 100 mg/kg administered via gavage daily for 7 days; type: organism-based; conditions: in vivo, po, 168 h, time 7 day
[33] = Stability in mouse plasma assessed as half life at 1 uM measured for 180 mins by LC-MS/MS analysis; type: ADME, cell-free
[34] = Subacute toxicity in female KM mouse assessed as kidney damage at 100 mg/kg administered via gavage daily for 7 days; type: organism-based; conditions: in vivo, po, 168 h, time 7 day
Candida albicans [35] = experiment: Antifungal activity against fluconazole-resistant Candida albicans 904 assessed as decrease in ERG11 expression at 16 ug/ml measured after 16 hrs by RT-PCR analysis; type: functional, organism-based; conditions: dose 16.0 µg/ml

T1 sequence (P10613 whole entry): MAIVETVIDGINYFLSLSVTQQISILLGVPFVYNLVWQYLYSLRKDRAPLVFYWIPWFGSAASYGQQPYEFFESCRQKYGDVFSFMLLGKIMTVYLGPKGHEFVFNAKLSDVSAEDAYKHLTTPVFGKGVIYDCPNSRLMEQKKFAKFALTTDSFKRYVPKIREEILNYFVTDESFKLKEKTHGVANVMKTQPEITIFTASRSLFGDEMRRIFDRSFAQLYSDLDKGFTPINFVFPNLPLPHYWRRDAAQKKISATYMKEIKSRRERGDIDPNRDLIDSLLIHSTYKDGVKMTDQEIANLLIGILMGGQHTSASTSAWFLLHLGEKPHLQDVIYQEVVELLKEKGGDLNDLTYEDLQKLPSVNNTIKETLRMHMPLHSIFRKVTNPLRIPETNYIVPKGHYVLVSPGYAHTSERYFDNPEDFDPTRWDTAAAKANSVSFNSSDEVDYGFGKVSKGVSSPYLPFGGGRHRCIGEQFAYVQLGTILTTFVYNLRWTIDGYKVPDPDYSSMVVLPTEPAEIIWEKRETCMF
Sequence of Cytochrome P450 2D6 (P10635 whole entry): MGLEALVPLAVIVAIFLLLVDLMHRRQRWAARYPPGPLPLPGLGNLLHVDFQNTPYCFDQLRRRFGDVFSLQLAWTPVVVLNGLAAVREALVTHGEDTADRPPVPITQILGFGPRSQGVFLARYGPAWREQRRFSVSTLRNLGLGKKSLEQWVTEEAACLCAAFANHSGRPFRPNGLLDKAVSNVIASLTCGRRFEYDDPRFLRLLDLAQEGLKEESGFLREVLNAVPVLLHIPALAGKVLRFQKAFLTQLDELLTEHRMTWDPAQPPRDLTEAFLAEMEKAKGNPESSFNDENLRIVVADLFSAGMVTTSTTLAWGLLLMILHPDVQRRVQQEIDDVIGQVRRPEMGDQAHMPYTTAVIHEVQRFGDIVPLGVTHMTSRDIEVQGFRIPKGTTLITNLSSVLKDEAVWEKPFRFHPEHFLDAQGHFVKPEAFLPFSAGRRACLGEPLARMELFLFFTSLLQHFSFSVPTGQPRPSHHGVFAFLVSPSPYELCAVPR
Sequence of Cytochrome P450 2C19 (P33261 whole entry): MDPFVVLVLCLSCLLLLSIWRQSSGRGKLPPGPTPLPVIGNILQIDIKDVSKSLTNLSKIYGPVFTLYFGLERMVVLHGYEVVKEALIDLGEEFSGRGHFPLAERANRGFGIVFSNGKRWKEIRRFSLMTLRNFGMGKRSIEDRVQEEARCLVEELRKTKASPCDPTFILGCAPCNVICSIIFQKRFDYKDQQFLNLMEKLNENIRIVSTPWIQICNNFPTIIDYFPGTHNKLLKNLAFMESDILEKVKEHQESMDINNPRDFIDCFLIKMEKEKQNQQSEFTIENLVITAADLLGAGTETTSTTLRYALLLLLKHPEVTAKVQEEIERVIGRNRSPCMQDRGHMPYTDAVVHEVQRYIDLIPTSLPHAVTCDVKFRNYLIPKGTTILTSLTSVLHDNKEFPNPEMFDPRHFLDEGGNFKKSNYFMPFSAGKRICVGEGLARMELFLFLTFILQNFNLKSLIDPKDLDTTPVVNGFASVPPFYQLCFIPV

O=c1ccc2ccc(COC(Cn3ccnc3)c3ccc(Cl)cc3Cl)cc2o1 (stereo not given)
Activity [1]: Non-Toxic | Activity (Candida albicans [2]): Active | IC50 (Cytochrome P450 2C19): 0.227 µM | Activity [3]: Toxic | MIC (Candida albicans [4]): 4 µg/mL (≈ 9.63 µM) | MIC (Nakaseomyces glabratus): 0.5 µg/mL (≈ 1.2 µM) | Activity (Candida albicans [5]): Active | remaining at 3 h, 1 µM [6]: 103% | Activity (Candida albicans [7]): Active | Activity (Candida albicans [8]): Active | Activity (Candida albicans [9]): Active | IC50 [10]: 24.4 µM | Activity (Candida albicans [11]): Active | inhibition (INH) [12]: Active | Activity (Candida albicans [13]): Active | Activity (Candida albicans [14]): Active | Activity (Candida albicans [15]): 2 log10CFU/ml | MIC (Candida parapsilosis): 0.5 µg/mL (≈ 1.2 µM) | Activity [16]: Toxic | Activity (Candida albicans [17]): Dose-Dependent Effect | Activity [18]: Non-Toxic | Activity [19]: Toxic | Activity (Candida albicans [20]): Dose-Dependent Effect | inhibition (INH) [21]: Active | inhibition (Candida albicans [22]): Active | IC50 (Cytochrome P450 2D6): 1.14 µM | Activity [23]: 1.54% | MIC (Pichia kudriavzevii): 2 µg/mL (≈ 4.82 µM) | Activity (Candida albicans [24]): Active | IC50 [25]: 24.4 µM | inhibition (Candida albicans [26]): Active | MIC (Candida albicans [27]): 0.06 µg/mL (≈ 0.144 µM) | MIC (Candida albicans [28]): 1 µg/mL (≈ 2.41 µM) | Activity (Candida albicans [29]): Active | half-life [30]: 15.2 min | MIC (Candida albicans [31]): 0.03 µg/mL (≈ 0.0722 µM) | Activity [32]: Toxic | half-life at 1 µM [33]: > 360 min | Activity [34]: Toxic | Activity (Candida albicans [35]): Active
